Like-named read-outs stand apart in the source and are kept apart here. Marks after values point to notes of the source that are not given here.
Tests used:
[1] = target: T1, GMIIb (Golgi α-mannosidase) (Drosophila melanogaster, UniProt Q9VF33); assay: α-mannosidase inhibition assay with pNP-Man substrate, GMIIb; format: biochemical; settings: for Ki: Dixon plots, pNP-Man 0.5-4 mM, pH 6.0
Source text: (§1) The enzymes screened included two Golgi types (GMIIb and AMAN-2) and two lysosomal types (LManII and JBMan) (Table 1).
(§2) Recombinant soluble forms of Drosophila melanogaster Golgi (GMIIb) and lysosomal (LManII) α-mannosidases as well as Caenorhabditis elegans Golgi α-mannosidase AMAN-2 were produced in Pichia pastoris and enriched by ammonium sulfate precipitation or nickel chelation chromatography as previously described. The α-mannosidase from Canavalia ensiformis (JBMan) was purchased from Sigma. […]
(§3) GMIIb was assayed in the […]
(§4) presence of 0.5 mM CoCl2.
(§5) The lyophilized derivatives used in the assay were dissolved in DMSO to the final concentration 50 mM and further diluted to a desired concentration in water. These derivatives were preincubated with the enzyme in the buffer for 5 min at rt and the reaction was started by addition of the substrate. The reactions were terminated with two volumes (0.1 mL) of 0.5 M sodium carbonate and the production of p-nitrophenol was measured at 405 nm using a multimode reader Mithras LB943 (Berthold Technologies). The average or representative result of three independent experiments made in duplicate is presented.

[2] = target: T2, AMAN-2 (Golgi α-mannosidase II) (Caenorhabditis elegans, UniProt Q2PJ74); assay: α-mannosidase inhibition assay with pNP-Man substrate, AMAN-2; format: biochemical; settings: for Selectivity index, SI [Ki (JBMan)/Ki (AMAN-2)]: ratio of Ki values; for SI [IC50 (JBMan)/IC50 (AMAN-2)]: ratio of IC50 values; for times more potent toward AMAN-2 than DIM: relative to DIM
Source text: as §1
Recombinant soluble forms of Drosophila melanogaster Golgi (GMIIb) and lysosomal (LManII) α-mannosidases as well as Caenorhabditis elegans Golgi α-mannosidase AMAN-2 were produced in Pichia pastoris and enriched by ammonium sulfate precipitation or nickel chelation chromatography as previously described. The α-mannosidase from Canavalia ensiformis (JBMan) was purchased from Sigma. The mannosidase activity of these enzyme preparations were measured using p-nitrophenyl α -D-mannopyranoside ( pNP-Man; Sigma; 100 mM stock in dimethylsulfoxide) as a substrate at 2 mM final concentration in 50 mM acetate buffer of the relevant previously defined optimal pH, GMIIb and AMAN -2 at pH 6.0, LManII at pH 5.2 , and JBMan at pH 5.0) and 0.5 μL of the enzyme (0.05 µg of protein for JBMan), in a total volume of 50 μL for 1–2 h at 37 °C. GMIIb was assayed in the presence of 0.5 mM CoCl2.
as §5

[3] = target: T3, LManII (lysosomal α-mannosidase) (Drosophila melanogaster, UniProt Q9VKV1); assay: α-mannosidase inhibition assay with pNP-Man substrate, LManII; format: biochemical; settings: for Ki: Dixon plots, pNP-Man 0.5-4 mM, pH 5.2
Source text: as §1, §2, §3, §4, §5

[4] = target: T4, JBMan (Jack bean α-mannosidase) (Canavalia ensiformis, UniProt C0HJB3); assay: α-mannosidase inhibition assay with pNP-Man substrate, JBMan; format: biochemical; settings: for IC50: 2 mM pNP-Man, pH 5.0, 37 °C; for Ki: Dixon plots, pNP-Man 0.5-4 mM, pH 5.0
T4 construct: purchased Sigma
T4 sequence (C0HJB3 1-981): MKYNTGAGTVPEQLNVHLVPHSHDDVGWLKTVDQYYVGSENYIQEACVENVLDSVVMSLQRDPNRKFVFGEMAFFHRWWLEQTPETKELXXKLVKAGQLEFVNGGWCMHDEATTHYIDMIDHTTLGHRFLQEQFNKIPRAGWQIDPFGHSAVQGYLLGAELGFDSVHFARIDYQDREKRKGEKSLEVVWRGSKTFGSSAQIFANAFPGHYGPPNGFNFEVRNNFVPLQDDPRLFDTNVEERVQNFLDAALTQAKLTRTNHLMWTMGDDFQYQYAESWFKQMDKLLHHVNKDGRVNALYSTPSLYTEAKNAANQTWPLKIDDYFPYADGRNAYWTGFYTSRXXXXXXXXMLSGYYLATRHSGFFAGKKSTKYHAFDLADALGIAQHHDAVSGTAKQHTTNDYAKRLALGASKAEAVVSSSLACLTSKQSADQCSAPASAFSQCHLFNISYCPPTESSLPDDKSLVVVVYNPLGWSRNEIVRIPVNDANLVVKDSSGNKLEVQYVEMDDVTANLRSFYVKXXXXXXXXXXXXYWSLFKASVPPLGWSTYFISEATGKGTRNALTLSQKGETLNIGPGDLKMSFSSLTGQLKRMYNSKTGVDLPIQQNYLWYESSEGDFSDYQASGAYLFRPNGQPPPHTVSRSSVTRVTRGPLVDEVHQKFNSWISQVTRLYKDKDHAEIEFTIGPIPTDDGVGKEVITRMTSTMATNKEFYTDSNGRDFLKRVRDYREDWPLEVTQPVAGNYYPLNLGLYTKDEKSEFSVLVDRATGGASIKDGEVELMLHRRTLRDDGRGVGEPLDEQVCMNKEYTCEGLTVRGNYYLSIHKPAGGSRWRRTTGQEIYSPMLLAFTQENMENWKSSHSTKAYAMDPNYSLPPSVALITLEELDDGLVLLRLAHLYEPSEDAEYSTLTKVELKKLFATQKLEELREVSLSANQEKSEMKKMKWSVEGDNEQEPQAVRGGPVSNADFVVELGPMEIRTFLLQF
Source text: as §1, §2, §3, §4, §5

[5] = target: T2, AMAN-2 (Golgi α-mannosidase II); assay: α-mannosidase inhibition assay with pNP-Man substrate, AMAN-2; format: biochemical; settings: Dixon plots, pNP-Man 0.5-4 mM, pH 6.0
[6] = target: T1, GMIIb (Golgi α-mannosidase); settings: ref Kóňa et al. [22]; cited from earlier work
[7] = target: T2, AMAN-2 (Golgi α-mannosidase II); settings: cited from earlier work; for IC50: ref Kóňa et al. [22]
[8] = target: T3, LManII (lysosomal α-mannosidase); settings: ref Kóňa et al. [22]; cited from earlier work
[9] = target: T4, JBMan (Jack bean α-mannosidase); settings: ref Kóňa et al. [22]; cited from earlier work
[10] = 2 mM pNP-Man, pH 6.0, 0.5 mM CoCl2, 37 °C, read-out: IC50 GMIIb
[11] = 2 mM pNP-Man, pH 6.0, 37 °C, read-out: IC50 AMAN-2
[12] = 2 mM pNP-Man, pH 5.2, 37 °C, read-out: IC50 LManII

T1 sequence (Q9VF33 entry or part of it): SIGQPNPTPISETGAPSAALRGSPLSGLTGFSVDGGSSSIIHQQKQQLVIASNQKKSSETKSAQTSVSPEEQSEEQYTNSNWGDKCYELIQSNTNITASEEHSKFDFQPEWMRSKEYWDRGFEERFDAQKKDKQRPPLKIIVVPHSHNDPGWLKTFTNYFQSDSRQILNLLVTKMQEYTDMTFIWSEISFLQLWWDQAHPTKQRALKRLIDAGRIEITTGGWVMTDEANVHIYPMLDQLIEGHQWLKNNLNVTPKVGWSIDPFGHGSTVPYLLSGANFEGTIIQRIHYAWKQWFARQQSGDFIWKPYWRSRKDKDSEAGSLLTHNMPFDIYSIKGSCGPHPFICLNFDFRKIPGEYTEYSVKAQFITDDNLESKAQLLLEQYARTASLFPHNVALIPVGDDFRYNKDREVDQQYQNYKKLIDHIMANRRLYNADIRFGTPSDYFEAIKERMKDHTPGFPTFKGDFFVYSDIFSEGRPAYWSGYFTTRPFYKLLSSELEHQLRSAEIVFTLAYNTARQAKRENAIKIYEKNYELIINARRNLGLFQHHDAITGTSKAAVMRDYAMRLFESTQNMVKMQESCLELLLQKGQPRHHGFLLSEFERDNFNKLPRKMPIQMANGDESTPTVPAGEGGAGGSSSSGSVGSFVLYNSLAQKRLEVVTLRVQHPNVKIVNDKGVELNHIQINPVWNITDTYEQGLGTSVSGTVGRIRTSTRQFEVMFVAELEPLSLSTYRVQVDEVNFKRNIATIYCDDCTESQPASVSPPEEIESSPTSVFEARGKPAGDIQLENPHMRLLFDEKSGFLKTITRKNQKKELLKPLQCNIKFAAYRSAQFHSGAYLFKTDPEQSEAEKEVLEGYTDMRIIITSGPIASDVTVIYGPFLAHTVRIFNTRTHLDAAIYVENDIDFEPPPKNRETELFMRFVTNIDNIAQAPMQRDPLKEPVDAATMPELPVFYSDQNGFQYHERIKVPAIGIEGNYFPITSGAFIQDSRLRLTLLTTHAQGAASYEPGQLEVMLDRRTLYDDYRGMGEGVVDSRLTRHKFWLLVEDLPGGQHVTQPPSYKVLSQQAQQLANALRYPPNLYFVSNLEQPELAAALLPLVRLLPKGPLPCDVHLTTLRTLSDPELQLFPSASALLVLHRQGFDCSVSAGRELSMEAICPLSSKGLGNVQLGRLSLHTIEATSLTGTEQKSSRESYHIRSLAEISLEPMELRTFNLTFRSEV
T3 sequence (Q9VKV1 entry or part of it): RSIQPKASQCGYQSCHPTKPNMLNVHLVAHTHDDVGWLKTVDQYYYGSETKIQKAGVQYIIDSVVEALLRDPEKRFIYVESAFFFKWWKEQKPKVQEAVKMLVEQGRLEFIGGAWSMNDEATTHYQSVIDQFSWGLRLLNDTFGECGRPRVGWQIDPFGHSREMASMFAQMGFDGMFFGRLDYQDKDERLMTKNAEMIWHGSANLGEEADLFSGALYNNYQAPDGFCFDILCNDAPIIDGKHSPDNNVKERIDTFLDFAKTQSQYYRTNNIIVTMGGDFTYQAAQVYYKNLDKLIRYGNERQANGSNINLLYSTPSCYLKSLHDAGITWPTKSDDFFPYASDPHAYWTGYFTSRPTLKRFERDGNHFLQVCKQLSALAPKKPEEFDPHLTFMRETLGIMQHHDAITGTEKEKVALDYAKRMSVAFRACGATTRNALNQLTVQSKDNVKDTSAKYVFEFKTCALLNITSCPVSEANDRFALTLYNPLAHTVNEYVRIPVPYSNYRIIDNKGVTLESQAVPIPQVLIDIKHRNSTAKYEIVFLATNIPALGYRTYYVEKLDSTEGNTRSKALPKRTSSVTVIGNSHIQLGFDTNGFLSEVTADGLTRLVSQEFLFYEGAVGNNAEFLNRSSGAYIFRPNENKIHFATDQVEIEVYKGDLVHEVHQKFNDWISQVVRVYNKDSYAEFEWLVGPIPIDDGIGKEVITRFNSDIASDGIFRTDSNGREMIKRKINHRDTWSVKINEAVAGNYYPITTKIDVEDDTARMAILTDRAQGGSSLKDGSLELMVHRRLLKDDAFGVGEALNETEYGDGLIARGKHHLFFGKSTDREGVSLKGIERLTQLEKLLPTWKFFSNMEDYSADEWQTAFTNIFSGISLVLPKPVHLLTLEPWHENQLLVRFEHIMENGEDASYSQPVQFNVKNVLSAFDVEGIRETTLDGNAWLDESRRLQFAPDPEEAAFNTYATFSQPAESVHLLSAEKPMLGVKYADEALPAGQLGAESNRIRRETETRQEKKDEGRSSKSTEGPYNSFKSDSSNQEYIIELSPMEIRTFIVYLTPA
T2 sequence (Q2PJ74 entry or part of it): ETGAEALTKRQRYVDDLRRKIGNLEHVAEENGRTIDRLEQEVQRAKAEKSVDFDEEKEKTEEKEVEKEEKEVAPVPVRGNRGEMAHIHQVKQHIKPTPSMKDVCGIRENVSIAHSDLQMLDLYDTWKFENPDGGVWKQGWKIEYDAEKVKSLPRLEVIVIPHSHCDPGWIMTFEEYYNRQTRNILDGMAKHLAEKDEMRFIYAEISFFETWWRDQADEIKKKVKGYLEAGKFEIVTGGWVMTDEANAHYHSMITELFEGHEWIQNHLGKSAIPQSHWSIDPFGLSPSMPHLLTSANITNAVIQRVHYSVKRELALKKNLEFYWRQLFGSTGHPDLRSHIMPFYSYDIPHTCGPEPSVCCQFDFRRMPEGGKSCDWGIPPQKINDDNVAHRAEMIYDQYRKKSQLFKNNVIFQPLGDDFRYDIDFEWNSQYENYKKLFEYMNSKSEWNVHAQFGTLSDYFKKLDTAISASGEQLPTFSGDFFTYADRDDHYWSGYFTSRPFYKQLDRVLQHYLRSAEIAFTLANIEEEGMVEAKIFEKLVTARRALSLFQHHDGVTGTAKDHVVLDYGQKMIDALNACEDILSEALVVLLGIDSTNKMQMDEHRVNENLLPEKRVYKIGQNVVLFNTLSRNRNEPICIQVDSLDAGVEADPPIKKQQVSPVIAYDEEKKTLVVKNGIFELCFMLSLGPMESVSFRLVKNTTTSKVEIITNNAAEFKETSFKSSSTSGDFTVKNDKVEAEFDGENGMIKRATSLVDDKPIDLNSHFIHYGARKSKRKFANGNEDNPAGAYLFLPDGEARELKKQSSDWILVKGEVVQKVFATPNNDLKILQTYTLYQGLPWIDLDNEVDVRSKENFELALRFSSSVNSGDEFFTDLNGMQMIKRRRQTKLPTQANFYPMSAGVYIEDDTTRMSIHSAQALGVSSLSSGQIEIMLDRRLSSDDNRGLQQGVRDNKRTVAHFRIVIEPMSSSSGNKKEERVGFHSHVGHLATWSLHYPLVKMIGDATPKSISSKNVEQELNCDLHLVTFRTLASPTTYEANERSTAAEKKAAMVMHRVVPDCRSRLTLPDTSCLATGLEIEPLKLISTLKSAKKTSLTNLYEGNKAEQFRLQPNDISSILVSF

Row | Compound | IC50 [1, 10] | Ki [1] | IC50 [2, 11] | Selectivity index, SI [Ki (JBMan)/Ki (AMAN-2)] [2] | IC50 [3, 12] | Ki [3] | IC50 [4] | Ki [4] | Ki [5] | further results
1 | OC[C@@H](O)[C@H]1NC[C@@H](O)[C@H]1O [DIM, 1,4-dideoxy-1,4-imino-ᴅ-mannitol, reference compound] | 0.19 ± 0.04 µM | 0.13 µM | 0.81 ± 0.03 µM | 0.6 | 2.55 ± 0.1 µM | 1.95 µM | 0.72 ± 0.03 µM | 0.38 µM | 0.68 µM | –
2 | C[C@@H]1[C@H](O)[C@H](O)CN1Cc1ccccc1 [compound 7] | 245 ± 35 µM | – | 975 ± 25 µM | – | > 4000 µM | – | > 4000 µM | – | – | –
3 | C[C@@H]1[C@H](O)[C@H](O)CN1Cc1ccc(I)cc1 [compound 8] | 205 ± 35 µM | – | 385 ± 15 µM | – | > 4000 µM | – | > 4000 µM | – | – | –
4 | C[C@@H]1[C@H](O)[C@H](O)CN1Cc1ccc2ccccc2c1 [compound 9] | 310 ± 22 µM | – | 605 ± 35 µM | – | > 4000 µM | – | > 4000 µM | – | – | –
5 | C[C@H]1NC[C@@H](O)[C@H]1O [compound 10] | – | – | – | – | – | – | 2880 ± 275 µM | – | – | IC50 [1]: 525 ± 25 µM; IC50 [2]: 415 ± 15 µM; IC50 [3]: > 4000 µM
6 | C[C@H](O)[C@@H]1[C@H](O)[C@H](O)CN1Cc1ccccc1 [compound 17] | 335 ± 37 µM | – | 990 ± 10 µM | – | > 4000 µM | – | > 4000 µM | – | – | –
7 | C[C@H](O)[C@@H]1[C@H](O)[C@H](O)CN1Cc1ccc(I)cc1 [compound 18] | 170 ± 10 µM | – | 205 ± 5 µM | – | > 4000 µM | – | > 4000 µM | – | – | –
8 | C[C@H](O)[C@@H]1[C@H](O)[C@H](O)CN1Cc1ccc2ccccc2c1 [compound 19] | 860 ± 140 µM | – | 1680 ± 75 µM | – | > 4000 µM | – | > 4000 µM | – | – | –
9 | C[C@H](O)[C@H]1NC[C@@H](O)[C@H]1O [compound 20] | 30 ± 5 µM | – | 48 ± 6 µM | – | 295 ± 20 µM | – | 105 ± 25 µM | – | – | SI [IC50 (JBMan)/IC50 (AMAN-2)] [2]: 2.2^b
10 | C[C@@H](O)[C@@H]1[C@H](O)[C@H](O)CN1Cc1ccccc1 [compound 26] | 33 ± 3.7 µM | 16.2 µM | 115 ± 18 µM | 1.4 | 505 ± 57 µM | 270 µM | 298 ± 30 µM | 80 µM | 58 µM | –
11 | C[C@@H](O)[C@@H]1[C@H](O)[C@H](O)CN1Cc1ccc(I)cc1 [compound 27] | 13 ± 5.5 µM | 4.2 µM | 66 ± 10 µM | 2.1 | 410 ± 80 µM | 263 µM | 164 ± 28 µM | 73 µM | 34 µM | –
12 | C[C@@H](O)[C@@H]1[C@H](O)[C@H](O)CN1Cc1ccc2ccccc2c1 [compound 28] | 13.5 ± 5.5 µM | 5.2 µM | 22 ± 4 µM | 2.4 | 118 ± 10 µM | 98 µM | 78 ± 16 µM | 44 µM | 18 µM | –
13 | C[C@@H](O)[C@H]1NC[C@@H](O)[C@H]1O [compound 29, 6-deoxy-DIM] | 0.12 ± 0.02 µM | 0.065 µM | 0.24 ± 0.05 µM | 0.6 | 0.82 ± 0.19 µM | 0.38 µM | 0.32 ± 0.11 µM | 0.12 µM | 0.19 µM | times more potent toward AMAN-2 than DIM [2]: ~4 times; times more potent toward AMAN-2 than DIM ([2]; listed as 6-deoxy-DIM): 3.5 times
14 | OC[C@H]1NC[C@@H](O)[C@H]1O [compound 30] | – | – | – | – | – | – | – | – | – | SI [IC50 (JBMan)/IC50 (AMAN-2)] [2]: 5^b; IC50 [6]: 3.9 ± 0.1 µM; Ki [7]: 2.3 µM; IC50 [7]: 2.3 ± 0.1 µM; IC50 [8]: 30.5 ± 3 µM; IC50 [9]: 10.5 ± 1.3 µM
15 | N-2-naphthylmethyl 1,4-imino-ᴅ-lyxitol [compound 31] | – | – | – | – | – | – | – | – | – | SI [IC50 (JBMan)/IC50 (AMAN-2)] [2]: 812^b; IC50 [6]: 7.6 ± 1.1 µM; IC50 [7]: 2.4 ± 0.1 µM; IC50 [8]: 845 ± 170 µM; IC50 [9]: 1950 ± 250 µM
